Data: US3956291A, “7-Thioacetamido cephalosporanic acid derivatives” (American Home Products Corporation, priority 1974, dated 1976)
≈ marks a conversion by molar mass, not a printed value. Read-outs that look alike come from different tables or passages of the source.

Experiments:
Test in all cases: agar serial dilution test, minimum inhibitory concentration
Format in all cases: cell-based
[1] = test system: klebsiella pneumoniae
Excerpt: (§1) The compounds of this invention are useful for the treatment of bacterial infections amenable to treatment by cephalosporins. […] In accordance with the results obtained with the antibacterial compounds of this invention, their usefulness is established in the fields of comparative pharmacology and microbiology for the purpose of inhibiting the growth of undesirable bacterial colonies. […]

[2] = test system: salmonella paratyphi; conditions: Salmonella enterica, read-out: Minimum Inhibitory Concentration
Excerpt: as §1

[3] = test system: bordetella brochiseptica; conditions: BO BR strain 4617
Excerpt: as §1

[4] = test system: proteus vulgaris
Excerpt: as §1

[5] = test system: bacillus subtilis; conditions: BA SU strain 6633; for MIC: Bacillus subtilis
Excerpt: as §1

[6] = test system: escherichia coli
Excerpt: as §1

[7] = test system: neisseria catarrhalis
Excerpt: as §1

[8] = test system: Staphylococcus aureus; conditions: for MIC: Staphylococcus aureus
Excerpt: as §1

[9] = KL PN strain 10031, read-out: Minimum Inhibitory Concentration
[10] = read-out: Minimum Inhibitory Concentration
[11] = PR VU strain 6896, read-out: Minimum Inhibitory Concentration
[12] = NE CA strain 8193, read-out: Minimum Inhibitory Concentration

Structure (SMILES) | MIC [1, 9] [µg/mL] | MIC [2] [µg/mL] | MIC [3] [µg/mL] | MIC [4, 10] [µg/mL] | MIC [5] [µg/mL] | MIC ([6]; ES CO strain 9637) [µg/mL] | MIC [7, 10] [µg/mL] | MIC ([8]; ST AU strain 53-180) [µg/mL] | MIC ([8]; ST AU strain 6538P) [µg/mL] | MIC ([8]; ST AU strain CHP) [µg/mL] | MIC ([8]; ST AU strain Smith) [µg/mL] | MIC [4, 11] [µg/mL] | MIC [7, 12] [µg/mL] | MIC ([6]; ES CO strain 920) [µg/mL] | MIC ([8]; ST AU (ditto mark) strain 9637 (so in the source)) [µg/mL] | MIC [1, 10] [µg/mL] | Minimum Inhibitory Concentration [5] [micrograms per milliliter] | Minimum Inhibitory Concentration ([8]; ST AU strain 6538P) [micrograms per milliliter] | Minimum Inhibitory Concentration ([8]; ST AU strain Smith) [micrograms per milliliter]
CCOC(=O)CSC(SCC(=O)N[C@@H]1C(=O)N2C(C(=O)O)=C(COC(C)=O)CS[C@H]12)=C(C#N)C#N [Example 1, 7-(2[2,2-Dicyano-1-(ethoxycarbonylmethylthio)ethenylthio]acetamido)cephalosporanic acid] | 250 (≈ 462 µM) | 125 (≈ 231 µM) | 250 (≈ 462 µM) | 125 (≈ 231 µM) | 0.244 (≈ 0.451 µM) | 250 (≈ 462 µM) | 125 (≈ 231 µM) | 3.9 (≈ 7.21 µM) | 0.976 (≈ 1.81 µM) | 7.81 (≈ 14.4 µM) | 0.976 (≈ 1.81 µM) |  |  |  |  |  |  |  | 
COC(=O)CSC(SCC(=O)N[C@@H]1C(=O)N2C(C(=O)O)=C(COC(C)=O)CS[C@H]12)=C(C#N)C(N)=O [Example 3, 7-(2-[2-Carbamoyl-1-(methoxycarbonylmethylthio)-2-cyanoethenylthio]acetamido) cephalosporanic acid] | 125 (≈ 230 µM) | 31.3 (≈ 57.5 µM) |  |  | 0.122 (≈ 0.224 µM) | 62.5 (≈ 115 µM) |  | 1.95 (≈ 3.58 µM) | 0.488 (≈ 0.896 µM) | 3.9 (≈ 7.16 µM) | 0.488 (≈ 0.896 µM) | 62.5 (≈ 115 µM) | 7.81 (≈ 14.3 µM) |  |  |  |  |  | 
CCOC(=O)CSC(SCC(=O)N[C@@H]1C(=O)N2C(C(=O)O)=C(COC(C)=O)CS[C@H]12)=C(C#N)C(N)=O [Example 4] | 125 (≈ 224 µM) | 62.5 (≈ 112 µM) |  |  | 0.061 (≈ 0.109 µM) | 250 (≈ 448 µM) |  | 1.95 (≈ 3.49 µM) | 0.488 (≈ 0.874 µM) | 3.9 (≈ 6.98 µM) | 0.488 (≈ 0.874 µM) | 125 (≈ 224 µM) | 3.9 (≈ 6.98 µM) |  |  |  |  |  | 
CSC(=NC#N)SCC(=O)N[C@@H]1C(=O)N2C(C(=O)O)=C(COC(C)=O)CS[C@H]12 [Example 5] | 125 (≈ 281 µM) | 31.3 (≈ 70.4 µM) | 125 (≈ 281 µM) |  | 0.976 (≈ 2.2 µM) |  |  | 3.9 (≈ 8.77 µM) | 1.95 (≈ 4.39 µM) | 7.81 (≈ 17.6 µM) | 0.976 (≈ 2.2 µM) | 62.5 (≈ 141 µM) | 250 (≈ 562 µM) | 250 (≈ 562 µM) | 125 (≈ 281 µM) |  |  |  | 
CC(=O)OCC1=C(C(=O)O)N2C(=O)[C@@H](NC(=O)CSC(SCC#N)=C(C#N)c3ccccc3)[C@H]2SC1 [Example 8, 7-(2-[2-Cyano-1-(cyanomethylthio)-2-phenylethenylthio]acetamido)cephalosporanic acid] |  | 62.5 (≈ 115 µM) | 250 (≈ 459 µM) |  | 0.031 (≈ 0.0569 µM) | 25 (≈ 45.9 µM) |  | 0.976 (≈ 1.79 µM) | 0.244 (≈ 0.448 µM) | 0.976 (≈ 1.79 µM) | 0.244 (≈ 0.448 µM) | 250 (≈ 459 µM) | 3.9 (≈ 7.16 µM) | 250 (≈ 459 µM) |  | 62.5 (≈ 115 µM) |  |  | 
CC(=O)OCC1=C(C(=O)O)N2C(=O)[C@@H](NC(=O)CSC(=C[N+](=O)[O-])SCc3ccccc3)[C@H]2SC1 [Example 9, 7-[2-(1-Benzylthio-2-nitroethenylthio)acetamido]cephalosporanic acid] | 125 (≈ 232 µM) | 62.5 (≈ 116 µM) | 250 (≈ 463 µM) |  | 0.031 (≈ 0.0574 µM) | 250 (≈ 463 µM) |  | 0.488 (≈ 0.904 µM) | 0.122 (≈ 0.226 µM) | 0.488 (≈ 0.904 µM) | 0.122 (≈ 0.226 µM) | 125 (≈ 232 µM) | 7.81 (≈ 14.5 µM) |  |  |  |  |  | 
CC(=O)OCC1=C(C(=O)O)N2C(=O)[C@@H](NC(=O)CSC(=NC#N)SCc3ccccc3)[C@H]2SC1 [Example 10, 7-[2-[ (cyanoimino) (phenylmethylthio)methylthio]acetamido]cephalosporanic acid] | 15.6 (≈ 30 µM) | 3.9 (≈ 7.49 µM) | 15.6 (≈ 30 µM) |  | 0.122 (≈ 0.234 µM) | 15.6 (≈ 30 µM) |  | 1.95 (≈ 3.75 µM) | 0.976 (≈ 1.87 µM) | 3.9 (≈ 7.49 µM) | 0.976 (≈ 1.87 µM) | 15.6 (≈ 30 µM) | 62.5 (≈ 120 µM) | 62.5 (≈ 120 µM) |  |  |  |  | 
CC(=O)OCC1=C(C(=O)O)N2C(=O)C(NC(=O)CSC(SCC#N)=C(C#N)S(C)(=O)=O)C2SC1 (centres unmarked) [Example 11, 7-[2-(2-Cyano-1-cyanomethylthio-2-methylsulfonylethenylthio)acetamido]cephalosporanic acid] |  |  |  |  |  |  |  |  |  |  |  |  |  |  |  |  | 15.6 | 250 | 250
CCOC(=O)CSC(=NC#N)SCC(=O)N[C@@H]1C(=O)N2C(C(=O)O)=C(COC(C)=O)CS[C@H]12 [Example 12, 7-[2-[(cyanoimino)(2-ethoxy-2-oxoethylthio)methylthio]acetamido]cephalosporanic acid] |  | 31.3 (≈ 60.6 µM) | 250 (≈ 484 µM) |  | 0.122 (≈ 0.236 µM) | 250 (≈ 484 µM) |  | 1.95 (≈ 3.77 µM) | 0.976 (≈ 1.89 µM) | 3.9 (≈ 7.55 µM) | 0.488 (≈ 0.945 µM) | 62.5 (≈ 121 µM) | 62.5 (≈ 121 µM) | 250 (≈ 484 µM) |  | 31.3 (≈ 60.6 µM) |  |  | 
CC(=O)OCC1=C(C(=O)O)N2C(=O)[C@@H](NC(=O)CSC(=NC#N)SCc3ccc([N+](=O)[O-])cc3)[C@H]2SC1 [Example 13, 7-[2-[(cyanoimino)(4-nitrophenylmethylthio)methylthio]acetamido]cephalosporanic acid] | 250 (≈ 442 µM) | 62.5 (≈ 110 µM) | 125 (≈ 221 µM) | 62.5 (≈ 110 µM) | 0.488 (≈ 0.863 µM) | 250 (≈ 442 µM) | 62.5 (≈ 110 µM) | 3.9 (≈ 6.9 µM) | 1.95 (≈ 3.45 µM) | 3.9 (≈ 6.9 µM) | 1.95 (≈ 3.45 µM) |  |  |  |  |  |  |  | 
CC(=O)OCC1=C(C(=O)O)N2C(=O)[C@@H](NC(=O)CSC(=NC#N)SCC(=O)O)[C@H]2SC1 [Example 15, 7-[2-[(cyanoimino)(2-hydroxy-2-oxoethylthio)methylthio]acetamido]cephalosporanic acid] | 250 (≈ 512 µM) | 125 (≈ 256 µM) |  | 125 (≈ 256 µM) | 1.95 (≈ 3.99 µM) |  |  |  | 15.6 (≈ 31.9 µM) | 62.5 (≈ 128 µM) | 7.81 (≈ 16 µM) |  |  |  |  |  |  |  | 
CC(=O)OCC1=C(C(=O)O)N2C(=O)[C@@H](NC(=O)CSC(=NC#N)SCc3cccc(Cl)c3)[C@H]2SC1 [Example 16, 7-[2-[(3-chlorophenylmethylthio) (cyanoimino)methylthio]acetamido]cephalosporanic acid] | 125 (≈ 225 µM) | 31.3 (≈ 56.4 µM) | 250 (≈ 450 µM) |  | 0.122 (≈ 0.22 µM) | 250 (≈ 450 µM) |  | 3.9 (≈ 7.03 µM) | 0.976 (≈ 1.76 µM) | 1.95 (≈ 3.51 µM) | 1.95 (≈ 3.51 µM) | 125 (≈ 225 µM) | 125 (≈ 225 µM) | 250 (≈ 450 µM) |  |  |  |  | 
C#CCSC(=NC#N)SCC(=O)N[C@@H]1C(=O)N2C(C(=O)O)=C(COC(C)=O)CS[C@H]12 [Example 17, 7-[2-[(cyanoimino) (2-propynylthio)methylthio]acetamido]cephalosporanic acid] |  | 7.81 (≈ 16.7 µM) |  |  | 0.122 (≈ 0.26 µM) | 31.3 (≈ 66.8 µM) |  | 3.9 (≈ 8.32 µM) | 0.488 (≈ 1.04 µM) | 3.9 (≈ 8.32 µM) | 0.488 (≈ 1.04 µM) | 62.5 (≈ 133 µM) | 125 (≈ 267 µM) | 62.5 (≈ 133 µM) |  | 7.81 (≈ 16.7 µM) |  |  | 
CC(=O)OCC1=C(C(=O)O)N2C(=O)[C@@H](NC(=O)CSC(=NC#N)SCc3ccc(Cl)cc3)[C@H]2SC1 [Example 18, 7-[2-[(4-Chlorophenylmethylthio) (cyanoimino)methylthio]acetamido]cephalosporanic acid] | 125 (≈ 225 µM) | 31.3 (≈ 56.4 µM) | 125 (≈ 225 µM) |  | 0.488 (≈ 0.879 µM) | 250 (≈ 450 µM) |  | 3.9 (≈ 7.03 µM) | 1.95 (≈ 3.51 µM) | 7.81 (≈ 14.1 µM) | 1.95 (≈ 3.51 µM) | 62.5 (≈ 113 µM) | 250 (≈ 450 µM) | 250 (≈ 450 µM) |  |  |  |  | 
